Measured values taken from US20060234987A1, “Neuroprotective benzo 1 3 oxathiol 2 ones” (priority 2003, published 2006).

Test system: SCG neurons
Assay: Protection of SCG neurons from anti-NGF killing
Type: cell-based, Sprague Dawley rats
Settings: Rattus norvegicus, Neuron, 48 h, read-out: IC50, rescue from anti-NGF killing of cultured SCG neurons
Description: Neurotrophins are critical to the growth, development, and survival of small fiber neurons of the PNS. SCG neurons are neurons of the PNS that undergo apoptosis upon NGF withdrawal. In a typical experiment SCG neurons are cultured in the presence of NGF, which induces survival and neurite out-growth. After 5 days the NGF is removed by either the addition of anti-NGF polyclonal antibody (Sigma) or by repeated washings (4 times) with NGF free media, resulting in the apoptosis of up to 90% of the neurons after 48 hours, as measured by MTS staining. The addition of selected compounds of Formula I to the final cellular media provides upwards of 100% protection, at drug concentrations ranging from 10 to 50 μM (see Example 62).
Protection of SCG neurons from anti-NGF killing. SCG neurons were isolated from day 1 neonatal Sprague Dawley rats, plated at a cell density of 5,000 cells/well, and incubated in Biowhittaker Ultraculture containing 1% Penstrep, 1% L-glutamine, 0.7% ARAC, 3% rat serum, and NGF (50 ng/mL, Calomone Labs), at 37° C., under a 5% CO2 atmosphere. After 4 days the cells were treated with anti-NGF antibody (Sigma). At this time compound was added and the cells were maintained serum and NGF free for 48 hours, at which time viability of the neurons was assessed using Alamar Blue (Medicorp) staining. Table 3 summarizes selected IC50 values from compounds tested using this protocol.

Point of comparison: `COc1ccc(NC(=O)Oc2cc(Sc3ccc4ccccc4c3)c3oc(=O)sc3c2)cc1` [Compound 26, 5-(N-(4-methoxyphenyl)carbamoyloxy)-7-((2-naphthyl)sulfanyl)benzo[1,3]oxathiol-2-one], IC50 16 µM. Against it:
- O=c1oc2c(-c3ccc(Br)cc3)cc(O)cc2s1 [Compound 44, 7-(4-bromophenyl)-5-hydroxybenzo[1,3]oxathiol-2-one] — within 1.5-fold, 20 µM
- Cc1cc(OC(=O)NC2CCCCC2)cc2sc(=O)oc12 [Compound 31, 5-(N-Cyclohexylcarbamoyloxy)-7-methylbenzo[1,3]oxathiol-2-one] — 2.2-fold higher, 35 µM
- O=c1oc2c(-c3ccc(Cl)cc3Cl)cc(O)cc2s1 [Compound 41, 7-(2,4-dichlorophenyl)-5-hydroxybenzo[1,3]oxathiol-2-one] — 2.3-fold lower, 7 µM

Same assay, conditions: Rattus norvegicus, Neuron; anti-NGF antibody, 48 hours, Alamar Blue viability; read-out: IC50, rescue from anti-NGF killing of cultured SCG neurons

Point of comparison: `O=c1oc2c(-c3ccc(Cl)c(Cl)c3)cc(O)cc2s1` [Compound 43, 7-(3,4-dichlorophenyl)-5-hydroxybenzo[1,3]oxathiol-2-one], IC50 7 µM. Against it:
- CCNc1cc(C)cc2sc(=O)oc12 [Compound 56, 7-ethylamino-5-methylbenzo[1,3]oxathiol-2-one] — 5.7-fold higher, 40 µM
- Cc1cccc(-c2cc(OC(=O)c3ccccc3Cl)cc3sc(=O)oc23)c1 [Compound 48, 5-(2-chlorophenylcarbonyloxy)-7-(3-methylphenyl)benzo[1,3]oxathiol-2-one] — 4-fold higher, 28 µM
- CC(C)c1ccccc1Sc1cc(O)cc2sc(=O)oc12 [Compound 14, 5-hydroxy-7-((2-iso-Propylphenyl)sulfanyl)benzo[1,3]oxathiol-2-one] — 4.3-fold higher, 30 µM
- O=c1oc2c(-c3cc(Cl)ccc3Cl)cc(O)cc2s1 [Compound 42, 7-(2,5-dichlorophenyl)-5-hydroxybenzo[1,3]oxathiol-2-one] — 2.4-fold higher, 17 µM
- O=c1oc2c(-c3ccc(-c4ccccc4)cc3)cc(O)cc2s1 [Compound 54, 7-biphenyl-5-hydroxybenzo[1,3]oxathiol-2-one] — 3.3-fold higher, 23 µM
- O=c1oc2c(Sc3cccc4ccccc34)cc(O)cc2s1 [Compound 22, 5-Hydroxy-7-((1-naphthyl)sulfanyl)benzo[1,3]oxathiol-2-one] — higher, > 30 µM
- Cc1cccc(C)c1-c1cc2oc(=O)sc2cc1O [Compound 50, 6-(2,6-dimethylphenyl)-5-hydroxybenzo[1,3]oxathiol-2-one] — 3.1-fold higher, 22 µM
- O=c1oc2c(Sc3ccccc3C(F)(F)F)cc(O)cc2s1 [Compound 18, 5-hydroxy-7-((2-Trifluoromethylphenyl)sulfanyl)benzo[1,3]oxathiol-2-one] — higher, > 30 µM
- COc1ccc(-c2cc(O)cc3sc(=O)oc23)cc1 [Compound 53, 5-hydroxy-7-(4-methoxyphenyl)benzo[1,3]oxathiol-2-one] — higher, > 30 µM
- O=c1oc2c([S+]([O-])c3ccc4ccccc4c3)cc(O)cc2s1 (stereo not shown) [Compound 24, 5-Hydroxy-7-((2-naphthyl)sulfinyl)benzo[1,3]oxathiol-2-one] — higher, > 30 µM
- CCSc1cc(O)cc2sc(=O)oc12 [Compound 5, 7-Ethylsulfanyl-5-hydroxybenzo[1,3]oxathiol-2-one] — higher, > 30 µM
- O=c1oc2c3c4c(cc2s1)CCCN4CCC3 [Compound 57] — 7.1-fold higher, 50 µM
- O=c1oc2ccc(Nc3c(Cl)cc(Br)cc3Cl)cc2s1 [Compound 58, 5-(4-bromo-2,6-dichloroanalino)benzo[1,3]oxathiol-2-one] — 7.1-fold higher, 50 µM
- O=C(Oc1cc(-c2ccccc2)c2oc(=O)sc2c1)c1sc2ccccc2c1Cl [Compound 33, 5-(3-chlorobenzothiophen-2-ylcarbonyloxy)-7-phenylbenzo[1,3]oxathiol-2-one] — higher, > 30 µM
- CCc1ccccc1Sc1cc(O)cc2sc(=O)oc12 [Compound 12, 7-((2-Ethylphenyl)sulfanyl)-5-hydroxybenzo[1,3]oxathiol-2-one] — higher, > 30 µM
- O=c1oc2c(Sc3ccccc3)cc(O)c(Sc3ccc4ccccc4c3)c2s1 [Compound 29, 5-hydroxy-4-(2-naphthylthio)-7-((phenyl)sulfanyl)benzo[1,3]oxathiol-2-one] — higher, > 30 µM
- Cc1cccc(C)c1Sc1cc(O)cc2sc(=O)oc12 [Compound 13, 7-((2,6-Dimethylphenyl)sulfanyl)-5-hydroxybenzo[1,3]oxathiol-2-one] — higher, > 30 µM
- O=c1oc2ccc(O)c(Sc3nc4ccccc4s3)c2s1 [Compound 21, 4-((Benzothiazol-2-yl)sulfanyl)-5-hydroxybenzo[1,3]oxathiol-2-one] — 7.1-fold higher, 50 µM
- O=c1oc2c(-c3ccccc3Cl)cc(O)cc2s1 [Compound 36, 7-(2-chlorophenyl)-5-hydroxybenzo[1,3]oxathiol-2-one] — 2.3-fold higher, 16 µM
- O=c1oc2c(-c3cccc(Cl)c3)cc(O)cc2s1 [Compound 37, 7-(3-chlorophenyl)-5-hydroxybenzo[1,3]oxathiol-2-one] — higher, > 30 µM
- O=c1oc2c(-c3ccc(Cl)cc3)cc(O)cc2s1 [Compound 39, 7-(4-chlorophenyl)-5-hydroxybenzo[1,3]oxathiol-2-one] — 4.3-fold higher, 30 µM
- O=c1oc2c(-c3cccc(I)c3)cc(O)cc2s1 [Compound 45, 5-hydroxy-7-(3-iodophenyl)benzo[1,3]oxathiol-2-one] — the same, 7 µM
- CC(C)(C)c1ccc(Sc2cc(O)cc3sc(=O)oc23)cc1 [Compound 17, 7-((4-tert-Butylphenyl)sulfanyl)-5-hydroxybenzo[1,3]oxathiol-2-one] — 3.6-fold higher, 25 µM

Same assay, conditions: anti-NGF antibody, 48 hours, Alamar Blue viability; read-out: IC50, rescue from anti-NGF killing of cultured SCG neurons

For `O=c1oc2c([S+]([O-])Cc3ccccc3)cc(O)cc2s1` (stereo not shown) [Compound 6], the IC50 was over 30 µM.

Same assay, conditions: at 10 μM compound

`CC(C)c1ccccc1Sc1cc2oc(=O)sc2cc1O` [Compound 15, 5-hydroxy-6-((2-iso-Propylphenyl)sulfanyl)benzo[1,3]oxathiol-2-one] was tested, and the “rescue from anti-NGF killing, % at 10 μM” value was 40% at 10 μM.

Same assay, conditions: at 30 μM compound

Point of comparison: `CC(C)c1ccc(Sc2cc(O)cc3sc(=O)oc23)cc1` [Compound 16, 7-(4-iso-Propylphenylthio)-5-hydroxybenzo[1,3]oxathiol-2-one], “rescue from anti-NGF killing, % at 30 μM” value 42% at 30 μM. Against it:
- O=c1oc2c(-c3ccccc3C(F)(F)F)cc(O)cc2s1 [Compound 51, 5-hydroxy-7-(2-trifluoromethylphenyl)benzo[1,3]oxathiol-2-one] — lower, 38% at 30 μM
- O=c1oc2c(-c3ccc(F)cc3)cc(O)cc2s1 [Compound 35, 7-(4-fluorophenyl)-5-hydroxybenzo[1,3]oxathiol-2-one] — lower, 40% at 30 μM

Same assay, conditions: at 50 μM compound

Point of comparison: `Cc1cccc(C)c1-c1cc(O)cc2sc(=O)oc12` [Compound 49, 7-(2,6-dimethylphenyl)-5-hydroxybenzo[1,3]oxathiol-2-one], “rescue from anti-NGF killing, % at 50 μM” value 40% at 50 μM. Against it:
- CCc1cccc(CC)c1Nc1ccc2oc(=O)sc2c1 [Compound 59, 6-(2,6-diethylanalino)benzo[1,3]oxathiol-2-one] — lower, 38% at 50 μM
- O=C(Oc1cc(-c2cccc(Cl)c2)c2oc(=O)sc2c1)c1ccccc1Cl [Compound 38, 5-(2-chlorophenylcarbonyloxy)-7-(3-chlorophenyl)benzo[1,3]oxathiol-2-one] — the same, 40% at 50 μM

Test system: SCG neurons
Assay: In vitro protection of SCG neurons from Taxol killing
Type: cell-based, Sprague Dawley rats
Settings: Rattus norvegicus, Neuron; Taxol 50 ng/mL, 48 hours, MTS viability; read-out: IC50, rescue from Taxol killing of SCG neurons
Source text: Taxol™ is regularly used in the treatment of breast and other cancers. Taxol™ binds to the cyto-skeletal protein tubulin, thereby inhibiting normal microtubular […] and inducing cellular apoptosis. Despite its potency as an anti-tumour agent, Taxol™ is also toxic to neurons, inducing dose limiting peripheral neuropathies. The addition of Taxol™ to cultured SCG neurons induces the degradation or loss of upwards of 80% of the neurons. The addition of selected compounds of Formula I to the cellular media, concurrently with Taxol™, protects upwards of 100% of the neurons, at drug concentrations ranging from 3 to 50 μM (see Example 63).
In Vitro Protection of SCG neurons from Taxol killing. SCG neurons were isolated from day 1 neonatal Sprague Dawley rats, plated at a cell density of 10,000 cells/well, and incubated in Biowhittaker Ultraculture containing 1% Penstrep, 1% L-glutamine, 0.7% ARAC, 3% rat serum, and NGF (50 ng/mL, Calomone Labs) at 37° C., under a 5% CO2 atmosphere. After 5 days the cells were treated with compound and Taxol™ (50 ng/mL). Viability of neurons was assessed 48 hours later using MTS (Promega) staining. Table 4 summarizes selected IC50 values from compounds tested using this protocol. Also, see FIG. 1 for compound protection against Taxol killing.

Point of comparison: `O=c1oc2ccc(O)cc2s1` [Compound 1, 5-Hydroxybenzo[1,3]oxathiol-2-one], IC50 25 µM. Against it:
- O=c1oc2c(Sc3cccc4ccccc34)cc(O)cc2s1 [Compound 22, 5-Hydroxy-7-((1-naphthyl)sulfanyl)benzo[1,3]oxathiol-2-one] — 2.5-fold lower, 10 µM
- O=c1oc2c(Cl)cc(O)c(Cl)c2s1 [Compound 3, 4,7-Dichloro-5-hydroxybenzo[1,3]oxathiol-2-one] — 2.5-fold lower, 10 µM
- COc1ccc(NC(=O)Oc2cc(Sc3ccc4ccccc4c3)c3oc(=O)sc3c2)cc1 [Compound 26, 5-(N-(4-methoxyphenyl)carbamoyloxy)-7-((2-naphthyl)sulfanyl)benzo[1,3]oxathiol-2-one] — 3.6-fold lower, 7 µM
